Some test systems named below: DU-145 prostate; NCI-H460 lung; KM12 colon; SR leukemia; SF-539 CNS; CCRF-CEM leukemia; UO-31 renal; MOLT-4 leukemia; SK-OV-3 ovarian; SNB-19 CNS.
Test in all cases: inhibition of tumour cell growth, NCI panel, 48 h

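Results reflect a 48-hour exposure of cells in 96-well plates to compound at five concentrations. The concentration for full growth arrest is given as TGI.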

Turning to `COC1=CC(=O)C2=C(C1=O)[C@H]1CC[C@]3(C)[C@@H](OC(C)=O)CC[C@H]3[C@@H]1CC2`, the TGI in the assay on DU-145 prostate, in the assay with NCI-H460 lung, with KM12 colon, in the assay with SR leukemia, in the assay on SF-539 CNS and in the assay on CCRF-CEM leukemia was more than 100 µM each time. Further, the TGI is more than 100 µM in the assay with UO-31 renal, 84 µM in the assay on MOLT-4 leukemia, more than 100 µM in the assay with SK-OV-3 ovarian and more than 100 µM in the assay on SNB-19 CNS.
Consider `COc1ccc(-c2nc(-c3cnccn3)n(C3OC(CO)C(O)C(O)C3O)n2)cc1` (stereo not given), for which the TGI with DU-145 prostate, with NCI-H460 lung, in the assay on KM12 colon, with SR leukemia, in the assay with SF-539 CNS and in the assay on CCRF-CEM leukemia was more than 100 µM each time. Moreover, the TGI with UO-31 renal, in the assay with MOLT-4 leukemia, in the assay on SK-OV-3 ovarian and in the assay with SNB-19 CNS was more than 100 µM each time.
Turning to `Cc1ccc2c(c1)CC1(C2=O)[C@H](c2ccccc2)C2C(=O)c3ccc(C)cc3C2[C@H]1c1ccccc1` (stereo not given in full), the TGI with DU-145 prostate, with NCI-H460 lung, with KM12 colon, in the assay with SR leukemia, with SF-539 CNS and with CCRF-CEM leukemia was more than 100 µM throughout. The TGI in the assay on UO-31 renal, in the assay with MOLT-4 leukemia, in the assay with SK-OV-3 ovarian and with SNB-19 CNS was more than 100 µM each time.
`Cc1ccc(/C=C2\CN(C)CC3C2=NC(=S)NC3c2ccc(C)cc2)cc1` (stereo not given): the TGI was more than 100 µM with DU-145 prostate; more than 100 µM with NCI-H460 lung; more than 100 µM with KM12 colon; more than 100 µM with SR leukemia; more than 100 µM with SF-539 CNS; 54.5 µM in the assay on CCRF-CEM leukemia. In addition, the TGI was more than 100 µM in the assay with UO-31 renal, 56 µM with MOLT-4 leukemia, more than 100 µM in the assay with SK-OV-3 ovarian and more than 100 µM with SNB-19 CNS.
As to `COC(=O)C(NC(=O)CSc1nnc(COc2ccc(Cl)cc2)n1-c1ccccc1)C(C)C` (stereo not given), the TGI with DU-145 prostate is more than 100 µM; in the assay with NCI-H460 lung it was 99.3 µM; with KM12 colon, 38.5 µM; in the assay with SR leukemia, more than 100 µM; in the assay on SF-539 CNS, more than 100 µM; with CCRF-CEM leukemia, more than 100 µM. In addition, the TGI in the assay with UO-31 renal was more than 100 µM; with MOLT-4 leukemia, more than 100 µM; in the assay with SK-OV-3 ovarian, more than 100 µM; in the assay on SNB-19 CNS, 73 µM.
Consider `COc1ccc(C=Nc2ccc(-c3nc4ccccc4[nH]3)cc2)cc1OC`, for which the TGI in the assay on DU-145 prostate, in the assay on NCI-H460 lung, with KM12 colon, with SR leukemia, with SF-539 CNS and in the assay on CCRF-CEM leukemia was more than 100 µM throughout. The TGI in the assay with UO-31 renal, with MOLT-4 leukemia, in the assay on SK-OV-3 ovarian and in the assay on SNB-19 CNS was more than 100 µM in each case.
In the case of `CCCNC(=O)CCC(C)[C@H]1CCC2C3C(C[C@H](OC(C)=O)[C@@]21C)[C@@]1(C)CCC2(C[C@H]1C[C@H]3OC(C)=O)OOC1(CCCCC1)OO2` (stereo not given in full), the TGI was determined as 3.36 µM in the assay on DU-145 prostate; 6.83 µM in the assay with NCI-H460 lung; 3.56 µM with KM12 colon; 4.7 µM in the assay with SR leukemia; 16 µM in the assay on SF-539 CNS; 4.95 µM in the assay on CCRF-CEM leukemia. The TGI in the assay on UO-31 renal is 0.232 µM; in the assay with MOLT-4 leukemia, 5.14 µM; in the assay on SK-OV-3 ovarian it was more than 100 µM; with SNB-19 CNS, more than 100 µM.

The values are drawn from PubChem BioAssay (NCI).
